Measurements published in patent US20240285784A1, “PEPTIDIC CONJUGATES OF SN38 USEFUL IN THE TREATMENT OF CANCER” (FUNDACIÓ INSTITUT DE RECERCA BIOMÈDICA (IRB BARCELONA), priority 2020, published 2024).
Read-outs that look alike come from different tables or passages of the source. *1 amine or outer side, *2 acyl side, *3 side chain or, on linkers, in order; H or OH if unused. Where a SMILES comes first, the peptide text is derived from it. Bridges are numbered along the chain shown (N, C = ends). [ ]: non-standard residue; d: D form. The star is where a group is joined. X1 = CCc1c2c(nc3ccc(O)cc13)-c1cc3c(c(=O)n1C2)COC(=O)[C@@]3(CC)OC(=O)CCCCn1cc(CCCC(=O)NCCCOCCOCCOCCCN*)nn1; Suc = O=C(CCC(=O)[*:2])[*:1]; Dap = NC[C@H](N)C(=O)O

Tests used:
[1] = system: diffuse intrinsic pontine glioma HSJD-DIPG-007; test: cells
Excerpt: (§1) Cancer cell lines were obtained from the repository maintained at Hospital Sant Joan de Deu (Barcelona, Spain). Cancer cell lines used in these experiment included cancer types of adult glioma (U373 and U87 cell lines), pediatric gliomas including diffuse intrinsic pontine glioma (HSJD-DIPG-007, HSJD-DIPG-011), and pediatric high-grade glioma (HSJD-GBM-001), retinoblastoma (HSJD-RBT-5, HSJD-RBT-7 and HSJD-RBT-14), Ewing sarcoma (A673), rhabdomyosarcoma (Rd and RH4) and neuroblastoma (LAN-1 and SK-N-JD cell lines and HSJD-NB-004, HSJD-NB-005 and HSJD-NB-016 patient-derived cell models). […] To add the drugs to the cells in culture, SN38-linker A-MiniAp4 (Ia) and irinotecan were prepared in culture medium from stock solutions at concentration 1 mg/mL in water. SN38 was prepared in culture medium from a stock solution at concentration 1 mg/mL in DMSO. […] Activity curves were built for adult glioma cell lines U87 (FIG. 1) and U373 (FIG. 2), pediatric gliomas including DIPG models HSJD-DIPG-007 (FIG. 3) and HSJD-DIPG-011 (FIG. 4), and pediatric high-grade glioma model HSJD-GBM-001 (FIG. 5), retinoblastoma models HSJD-RBT-5 (FIG. 6), HSJD-RBT-7 (FIG. 7) and HSJD-RBT-14 (FIG. 8), Ewing sarcoma cell line A673 (FIG. 9), rhabdomyosarcoma cell lines Rd (FIG. 10) and RH4 (FIG. 11), neuroblastoma cell lines LAN-1 (FIG. 12) and SK-N-JD (FIG. 13) and neuroblastoma patient-derived cell models HSJD-NB-004 (FIG. 14), HSJD-NB-005 (FIG. 15) and HSJD-NB-016 (FIG. 16). The established IC50 values are in Table 3.
Cancer cell lines used in these experiments were pediatric gliomas including diffuse intrinsic pontine glioma HSJD-DIPG-007, and pediatric high-grade glioma HSJD-GBM-001. […] To add the drugs to the cells in culture, SN38-Linker A-MiniAp4 (Ia) and SN38-Linker B-THRre were prepared in culture medium from stock solutions at concentration 1 mg/mL in water. SN38 was prepared in culture medium from a stock solution at concentration 1 mg/mL in DMSO. […] Activity curves were built for cells HSJD-DIPG-007 (FIG. 20) and HSJD-GBM-001 (FIG. 21).
Cancer cell lines used in these experiments were pediatric gliomas including diffuse intrinsic pontine glioma HSJD-DIPG-007, and pediatric high-grade glioma HSJD-GBM-001. […] All compounds were prepared in culture medium from stock solutions at concentration 1 mg/mL in water. […] Activity curves were built for cells HSJD-DIPG-007 (FIG. 22) and HSJD-GBM-001 (FIG. 23).
Cancer cell line used in these experiment was HSJD-DIPG-007.

[2] = system: Ewing sarcoma cell line A673; test: MTS cell viability assay, Ewing sarcoma cell line A673; type: cell-based; settings: 72 h incubation, Example 9, Table 3, read-out: IC50 values against cancer cell lines
Excerpt: as §1

[3] = system: adult glioma cell line U87; test: MTS cell viability assay, adult glioma cell line U87; type: cell-based; settings: 72 h incubation, Example 9, Table 3, read-out: IC50 values against cancer cell lines
Excerpt: as §1

[4] = system: neuroblastoma patient-derived cell model HSJD-NB-004; test: MTS cell viability assay, neuroblastoma model HSJD-NB-004; type: cell-based; settings: 72 h incubation, Example 9, Table 3, read-out: IC50 values against cancer cell lines
Excerpt: as §1

[5] = system: neuroblastoma cell line LAN-1; test: MTS cell viability assay, neuroblastoma cell line LAN-1; type: cell-based; settings: Example 9, Table 3, read-out: IC50 values against cancer cell lines
Excerpt: as §1

[6] = system: rhabdomyosarcoma cell line Rd; test: MTS cell viability assay, rhabdomyosarcoma cell line Rd; type: cell-based; settings: 72 h incubation, Example 9, Table 3, read-out: IC50 values against cancer cell lines
Excerpt: as §1

[7] = system: neuroblastoma patient-derived cell model HSJD-NB-005; test: MTS cell viability assay, neuroblastoma model HSJD-NB-005; type: cell-based; settings: 72 h incubation, Example 9, Table 3, read-out: IC50 values against cancer cell lines
Excerpt: as §1

[8] = system: adult glioma cell line U373; test: MTS cell viability assay, adult glioma cell line U373; type: cell-based; settings: 72 h incubation, Example 9, Table 3, read-out: IC50 values against cancer cell lines
Excerpt: as §1

[9] = system: diffuse intrinsic pontine glioma HSJD-DIPG-011; test: MTS cell viability assay, DIPG model HSJD-DIPG-011; type: cell-based; settings: 72 h incubation, Example 9, Table 3, read-out: IC50 values against cancer cell lines
Excerpt: as §1

[10] = system: retinoblastoma cell model HSJD-RBT-5; test: MTS cell viability assay, retinoblastoma model HSJD-RBT-5; type: cell-based; settings: 72 h incubation, Example 9, Table 3, read-out: IC50 values against cancer cell lines
Excerpt: as §1

[11] = system: retinoblastoma cell model HSJD-RBT-7; test: MTS cell viability assay, retinoblastoma model HSJD-RBT-7; type: cell-based; settings: 72 h incubation, Example 9, Table 3, read-out: IC50 values against cancer cell lines
Excerpt: as §1

[12] = system: retinoblastoma cell model HSJD-RBT-14; test: MTS cell viability assay, retinoblastoma model HSJD-RBT-14; type: cell-based; settings: 72 h incubation, Example 9, Table 3, read-out: IC50 values against cancer cell lines
Excerpt: as §1

[13] = system: neuroblastoma patient-derived cell model HSJD-NB-016; test: MTS cell viability assay, neuroblastoma model HSJD-NB-016; type: cell-based; settings: 72 h incubation, Example 9, Table 3, read-out: IC50 values against cancer cell lines
Excerpt: as §1

[14] = system: rhabdomyosarcoma cell line RH4; test: MTS cell viability assay, rhabdomyosarcoma cell line RH4; type: cell-based; settings: 72 h incubation, Example 9, Table 3, read-out: IC50 values against cancer cell lines
Excerpt: as §1

[15] = HSJD-DIPG-007, 72 h, read-out: IC50 values against cancer cell lines

Structure (SMILES)	IC50 [4] [nM]	IC50 [7] [nM]	IC50 [9] [nM]	IC50 [10] [nM]	IC50 [11] [nM]	IC50 [12] [nM]	IC50 [13] [nM]	IC50 [1, 15] [µM]	IC50 ([2]; Homo sapiens) [nM]	IC50 ([3]; Glioma cell) [nM]	IC50 ([5]; LAN1, 72 h incubation) [nM]	IC50 ([6]; Rhabdomyosarcoma cell) [nM]	IC50 ([8]; Homo sapiens, U373 MG) [nM]	IC50 ([14]; Rhabdomyosarcoma cell) [nM]	also measured
CCc1c2c(nc3ccc(O)cc13)-c1cc3c(c(=O)n1C2)COC(=O)[C@@]3(CC)OC(=O)CCCCn1cc(CCCC(=O)NCCCOCCOCCOCCCNC(=O)CCC(=O)N[C@H]2CNC(=O)C[C@@H](C(N)=O)NC(=O)[C@H](CC(C)C)NC(=O)[C@H](C)NC(=O)[C@H]([C@@H](C)O)NC(=O)[C@H](CCC(=O)O)NC(=O)[C@@H]3CCCN3C(=O)[C@H](C)NC(=O)[C@H](CCCCN)NC2=O)nn1 [SN38-linker A-MiniAp4 (Ia)] ({X1-Suc}-[Dap]KAPETALD-NH2; lactam 1-9)	76.9	51.5	72.9	92.1	15.1	33.5	25.6	–	–	–	–	–	–	–	IC50 ([1]; read-out: IC50 values (μM) against cancer cell lines, HSJD-DIPG-007, MTS, 72 h incubation, Example 12, Table 5): 0.0203 µM; IC50 ([1]; read-out: IC50 values against cancer cell lines, HSJD-DIPG-007, MTS, 72 h incubation, Example 9, Table 3): 0.0342 µM; IC50 ([1]; read-out: IC50 values of compounds, HSJD-DIPG-007, MTS, 72 h incubation, Example 11, Table 4): 0.0107 µM; IC50 ([1]; read-out: IC50 values, HSJD-DIPG-007, MTS, 72 h incubation, Example 25, Table 8): 0.0278 µM; IC50 [2]: 3.8 nM; IC50 [3]: 744 nM; IC50 ([5]; 72 h incubation): 21.6 nM; IC50 [6]: 6.94 nM; IC50 [8]: 6.65 nM; IC50 [14]: 81.5 nM
CCc1c2c(nc3ccc(OC(=O)N4CCC(N5CCCCC5)CC4)cc13)-c1cc3c(c(=O)n1C2)COC(=O)[C@]3(O)CC [Irinotecan]	9840	8200	1200	911	1120	2600	659	4.75	1440	9750	7000	5960	3720	10800	–
CCc1c2c(nc3ccc(O)cc13)-c1cc3c(c(=O)n1C2)COC(=O)[C@]3(O)CC [SN38, 7-ethyl-10-hydroxy-camptothecin]	231	12.5	1.12	10.3	0.335	1.08	12.3	0.00113	0.462	4.04	1.96	1.57	0.869	14.8	IC50 ([1]; HSJD-DIPG-007, 72 h, read-out: IC50 values (μM)): 0.000739 µM; IC50 ([1]; HSJD-DIPG-007, 72 h, read-out: IC50 values of compounds): 0.00151 µM
